From US20220146526A1, “METHOD FOR EVALUATING SAMPLE, ANALYSIS METHOD, METHOD FOR DETECTING DEGRADED SAMPLE, MARKER FOR DETECTING DEGRADED BLOOD PLASMA SAMPLE, AND MARKER FOR DETECTING DEGRADED SERUM SAMPLE” (SHIMADZU CORPORATION, priority 2019, published 2022) come the findings set out here.

Type in all cases: physicochemical, human
Series [1] is described as follows: GC/MS of serum sample: time from centrifugation to isolation (Table H). Also on record: key to Rate of increase or decrease / Rate of increase or decrease (first value, increase): detection intensity relative to 1 at 30 min centrifugation-to-isolation. Conditions: for Rate of increase or decrease: detection intensity relative to 1 at 30 minutes; for Increase or decrease: detection intensity. The method in brief: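 Blood was centrifuged at room temperature, 3500 rpm, 5 min, and the vessel left at room temperature for 30 min, 1 h or 6 h before serum isolation. Serum was methoxymated, trimethylsilylated and analysed by GC/MS with electron ionization in MRM mode; intensities expressed relative to the 30-min condition (=1).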

Series [2] is described as follows: GC/MS of blood plasma sample: time from blood collection to centrifugation (Table A). Conditions: for Rate of increase or decrease: detection intensity relative to 1 at 15 minutes; for Rate of increase or decrease / Increase or decrease: blood collection to centrifugation; for Increase or decrease: detection intensity; for Rate of increase or decrease (second value, decrease) / Rate of increase or decrease (first value, increase): different from individual to individual, relative to 1 at 15 minutes, collection to centrifugation; for Rate of increase or decrease (second value, decrease): individuals with decrease; for Rate of increase or decrease (first value, increase): individuals with increase. The method, boiled down:
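EDTA blood from a healthy subject was cooled at 4° C, centrifuged at 4° C, 3000 rpm, 15 minutes, and plasma was frozen. After methoxymation and trimethylsilylation, samples ran on GC/MS (BPX5 column, 60-330° C gradient, electron ionization, MRM). Intensity is relative to 15 minutes from collection to centrifugation.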

Series [3] in a line: GC/MS of serum sample: number of times of freezing and thawing (Table I). Also on record: key to Rate of increase or decrease / Rate of increase or decrease (first value, increase): detection intensity relative to 2 freeze-thaw cycles = 1. Conditions: for Rate of increase or decrease: detection intensity relative to 1 at 2 times. The method in brief: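 Serum was isolated after centrifugation at room temperature (3500 rpm, 5 min), frozen, and put through 2, 4, 6 or 10 freeze–thaw cycles. Samples were methoxymated and trimethylsilylated, then run by electron-ionization GC/MS in MRM mode on a BPX5 column (60 to 330 °C). Detection intensity is given relative to the 2-cycle sample, set as 1.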

Series [4] is described as follows: GC/MS of serum sample: time from blood collection to centrifugation (Table G). Conditions: for Increase or decrease: detection intensity; for Increase or decrease / Rate of increase or decrease: blood collection to centrifugation; for Rate of increase or decrease (second value, decrease) / Rate of increase or decrease (first value, increase): different from individual to individual, relative to 1 at 15 minutes, collection to centrifugation; for Rate of increase or decrease (second value, decrease): individuals with decrease; for Rate of increase or decrease (first value, increase): individuals with increase; for Rate of increase or decrease: detection intensity relative to 1 at 15 minutes. The method, boiled down:
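Blood was held for varying times before centrifugation (room temperature, 3500 rpm, 5 min); serum was frozen, then methoxymated and trimethylsilylated for GC/MS with electron ionization in MRM mode. Values are detection intensities relative to the 15-minute collection-to-centrifugation condition, set as 1.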

Series [5] in a line: GC/MS of blood plasma sample: time from blood collection to cooling of blood (Table B). Conditions: for Rate of increase or decrease: detection intensity relative to 1 at 1 minute or less, blood collection to cooling 5 minutes; for Increase or decrease: detection intensity, blood collection to cooling 5 minutes or more vs 1 minute or less. Also on record: key to Rate of increase or decrease / Rate of increase or decrease (first value, increase): detection intensity relative to 1 at cooling time ≤1 min. The procedure:
(§1) At room temperature, 5 mL of blood from a healthy subject was taken into a blood-collecting vessel containing EDTA, and the blood-collecting vessel was inverted for mixing, then cooled, and allowed to stand at 4° C. Here, in order to investigate how the detection intensity of molecules contained in the sample was affected in a case where the time to cooling was set to 5 minutes or more as compared to that in a case where the time to cooling was set to 1 minute or less, preparations were performed under both the former condition and the latter condition. After standing, the blood sample was subjected to centrifugation under a condition of 4° C., 3000 rpm, and 15 minutes. […] After centrifugation, the blood-collecting vessel was left to stand at room temperature for 30 minutes, and the blood plasma was isolated during this 30 minutes. The obtained blood plasma sample was frozen and stored. Here, in order to investigate how the detection intensity of molecules contained in the sample was affected in cases where freezing and thawing was performed 4 times, 6 times, and 10 times after freezing as compared to that in a case where freezing and thawing was performed 2 times after freezing, freezing and thawing was performed under the respective conditions of 2, 4, 6, and 10 times.
(§2) Frozen blood plasma samples and serum samples were subjected to GC/MS or LC/MS. In GC/MS, the blood plasma samples and serum samples were subjected to methoxymation and trimethylsilylation and then introduced to GC-MS.
(§3) GC/MS was conducted using GCMS·TQ8040 (Shimadzu Corporation) that was a GC·MS equipped with AOC·20i (Shimadzu Corporation) as an autosampler.
(§4) Column: BPX5 (inner diameter of 0.25 mm, length of 30 m, and film thickness of 0.25 μm) (SGE)
(§5) Column temperature: maintained at 60° C. for 2 minutes, then raised at 15° C./min, and maintained at 330° C. for 3 minutes.
(§6) Inlet temperature: 250° C.
(§7) Carrier gas control mode: constant linear velocity of 39.0 cm/sec
(§8) Sample introduction method: split (split ratio of 30:1) Injection volume: 1 μL
(§9) Ionization method: electron ionization
(§10) Ionization current: 60 μA
(§11) Interface temperature: 280° C.
(§12) Ion source temperature: 200° C.
(§13) Mode: multiple reaction monitoring (MRM)
Table B presents compounds of which the detection intensity increased or decreased by 30% or more in a case where the time from blood collection to cooling of blood, when a blood plasma sample was analyzed by GC/MS, was set to 5 minutes or more as compared to that in a case where the time was set to 1 minute or less. The rate of increase or decrease in Table B is the value of detection intensity relative to 1 that is the detection intensity in a case where the time from blood collection to cooling is set to 1 minute or less.

Series [6] can be described thus: GC/MS of blood plasma sample: number of times of freezing and thawing (Table C). Conditions: for Rate of increase or decrease: detection intensity relative to 1 at 2 times; for Increase or decrease: detection intensity; for Rate of increase or decrease (second value, decrease) / Rate of increase or decrease (first value, increase): different from individual to individual, relative to 1 at 2 times; for Rate of increase or decrease (second value, decrease): individuals with decrease; for Rate of increase or decrease (first value, increase): individuals with increase. The procedure: as §1, §2, §3, §4, §5, §6, §7, §8, §9, §10, §11, §12, §13
The rate of increase or decrease in Table C is the value of detection intensity relative to 1 that is the detection intensity in a case where the number of times of freezing and thawing is set to 2 times.

Where [7] appears, read: freezing and thawing 4 times vs 2 times.
Setting [8] is: freezing and thawing 10 times vs 2 times.
[9] abbreviates: freezing and thawing 6 times vs 2 times.

For the molecule `OC[C@H]1O[C@@H](O[C@H]2[C@H](O)[C@@H](O)C(O)O[C@@H]2CO)[C@H](O)[C@@H](O)[C@H]1O` (some centres unmarked) [Lactose], the “Rate of increase or decrease” value in series [1] (after 1 hour) is 2.37; in series [1] (after 6 hours), 1.43; in series [2] (after 12 hours) it was 0.70; in series [3] (serum, GC/MS, freezing and thawing 4 times), 1.60; in series [3] (serum, GC/MS, freezing and thawing 6 times), 1.33; in series [5], 0.56. The “Rate of increase or decrease” value in series [6] (freezing and thawing 4 times) worked out at 1.40. Besides, the Increase or decrease result in series [1] (after 1 hour vs 30 minutes) is on record as “Increase”; in series [1] (after 6 hours vs 30 minutes) it was “Increase”; in series [2] (after 12 hours vs 15 minutes) it was “Decrease”; in series [3] (detection intensity, serum, GC/MS, freezing and thawing 4 times vs 2 times), “Increase”; in series [3] (detection intensity, serum, GC/MS, freezing and thawing 6 times vs 2 times), “Increase”; in series [4] (after 4 hours vs 15 minutes), “Different from individual”. Further, the figures for the Increase or decrease entry in series [4] (after 8 hours vs 15 minutes), in series [5] and in series [6] (setting [7]) were “Different from individual”, “Decrease” and “Increase”, respectively. Besides, the “Rate of increase or decrease (second value, decrease)” value in series [4] (after 4 hours) amounted to 0.62; in series [4] (after 8 hours), 0.65. Besides, the “Rate of increase or decrease (first value, increase)” value in series [4] (after 4 hours) is reported as 1.31; in series [4] (after 8 hours), 3.99.
As for `OC[C@@H](O)[C@@H](O[C@@H]1O[C@H](CO)[C@H](O)[C@H](O)[C@H]1O)[C@H](O)[C@@H](O)CO` [Lactitol], the “Rate of increase or decrease” value turned out to be 1.60 in series [1] (after 1 hour); 3.20 in series [4] (after 4 hours); 0.67 in series [5]; 1.73 in series [6] (freezing and thawing 10 times). Further, the Increase or decrease entry in series [1] (after 1 hour vs 30 minutes) is given as “Increase”; in series [2] (after 4 hours vs 15 minutes) it was “Different from individual”; in series [4] (after 4 hours vs 15 minutes) it was “Increase”; in series [5], “Decrease”; in series [6] (setting [8]) it was “Increase”. Moreover, the “Rate of increase or decrease (second value, decrease)” value in series [2] (after 4 hours) was 0.22. Further, the “Rate of increase or decrease (first value, increase)” value in series [2] (after 4 hours) worked out at 3.36.
As for `O=c1ccn([C@H]2C[C@H](O)[C@@H](CO)O2)c(=O)[nH]1` [2′-Deoxyuridine], the “Rate of increase or decrease” value stood at 1.43 in series [2] (after 12 hours) and 0.68 in series [5]. Moreover, the Increase or decrease entry in series [2] (after 12 hours vs 15 minutes) is reported as “Increase”; in series [5], “Decrease”; in series [6] (setting [9]), “Different from individual”. In addition, the “Rate of increase or decrease (second value, decrease)” value in series [6] (freezing and thawing 6 times) stood at 0.67. Moreover, the “Rate of increase or decrease (first value, increase)” value in series [6] (freezing and thawing 6 times) came out at 1.43.
Consider `CS(=O)(=O)CC[C@H](N)C(=O)O` [Methionine sulfone], for which the “Rate of increase or decrease” value in series [2] (after 4 hours) was determined as 4.98; in series [5], 0.70; in series [6] (freezing and thawing 4 times), 1.77. For the same molecule, the Increase or decrease entry in series [2] (after 4 hours vs 15 minutes) is reported as “Increase”; in series [5] it was “Decrease”; in series [6] (setting [7]) it was “Increase”.
Take `CC(=O)N[C@@H](CO)C(=O)O` [N-acetylserine]: the “Rate of increase or decrease” value is 1.69 in series [1] (after 1 hour) and 1.44 in series [4] (after 12 hours). In addition, the Increase or decrease entry in series [1] (after 1 hour vs 30 minutes) is “Increase”; in series [2] (after 4 hours vs 15 minutes) it was “Different from individual”; in series [4] (after 12 hours vs 15 minutes) it was “Increase”; in series [5], “Different from individual”; in series [6] (setting [9]) it was “Different from individual”. In addition, the “Rate of increase or decrease (second value, decrease)” value in series [2] (after 4 hours) came to 0.66; in series [5] (different from individual to individual, individuals with decrease, relative to 1 at 1 minute or less, collection to cooling 5 minutes), 0.69; in series [6] (freezing and thawing 6 times) it was 0.69. The “Rate of increase or decrease (first value, increase)” value in series [2] (after 4 hours) came out at 1.69; in series [5] (different from individual to individual, individuals with increase, relative to 1 at 1 minute or less, collection to cooling 5 minutes) it was 1.64; in series [6] (freezing and thawing 6 times), 1.39.
Take `NCCc1c[nH]cn1` [Histamine]: the “Rate of increase or decrease” value in series [2] (after 4 hours) amounted to 1.78; in series [5] it was 0.67; in series [6] (freezing and thawing 10 times) it was 1.63. Further, the Increase or decrease result in series [2] (after 4 hours vs 15 minutes) is listed as “Increase”; in series [5], “Decrease”; in series [6] (setting [8]), “Increase”.
As for `O=P(O)(O)OCC(O)CO` (centres unmarked) [Glycerol-3-phosphate], the Increase or decrease entry in series [2] (after 4 hours vs 15 minutes) is listed as “Different from individual”; in series [4] (after 4 hours vs 15 minutes), “Increase”; in series [5] it was “Increase”; in series [6] (setting [9]), “Decrease”. Besides, the “Rate of increase or decrease (second value, decrease)” value in series [2] (after 4 hours) amounted to 0.32. Moreover, the “Rate of increase or decrease (first value, increase)” value in series [2] (after 4 hours) was 4.90. For the same molecule, the “Rate of increase or decrease” value in series [4] (after 4 hours) is 1.39; in series [6] (freezing and thawing 6 times) it was 0.41.
In the case of `O=C(CO)[C@H](O)[C@H](O)CO` [Ribulose], the Increase or decrease result in series [2] (after 4 hours vs 15 minutes) was “Different from individual”; in series [3] (serum sample, GC/MS, detection intensity vs 2 times of freezing and thawing), “Decrease”; in series [4] (after 8 hours vs 15 minutes), “Increase”; in series [5], “Increase”; in series [6] (setting [7]), “Increase”. Besides, the “Rate of increase or decrease (second value, decrease)” value in series [2] (after 4 hours) came out at 0.66. Moreover, the “Rate of increase or decrease (first value, increase)” value in series [2] (after 4 hours) is recorded as 4.41. Besides, the “Rate of increase or decrease” value is reported as 0.68 in series [3] (10 times of freezing and thawing); 1.72 in series [4] (after 8 hours); 1.96 in series [5]; 1.38 in series [6] (freezing and thawing 4 times). For the same molecule, the “Number of times when compound is affected” value in series [3] (serum sample, GC/MS, detection intensity changed by 30% or more vs 2 times of freezing and thawing) was 10 times.
